Key:
[1] = tested on: moderate-to-severe chronic spontaneous urticaria (CSU); assay: Phase 2 CSU study: Patient Global Impression of Severity (PGIS); assay type: in vivo, human; settings: for PGIS Change from baseline Mean (SD) / PGIS Change from baseline Median / PGIS Median / PGIS Percent change from baseline Mean (SD) / PGIS Percent change from baseline Median / PGIS category Mild, patients / PGIS category Moderate, patients / PGIS category None, patients / PGIS category Severe, patients: omalizumab-naïve population; for PGIS % Change difference for rilzabrutinib vs. placebo LS Mean (95% CI) / PGIS % Change from baseline LS Mean (SE) / PGIS Change difference for rilzabrutinib vs. placebo LS Mean (95% CI) / PGIS Change from baseline LS Mean (SE): omalizumab-naïve, ANCOVA
Text: The study comprises a 12 week, randomized, double-blind, placebo-controlled, multi-center, dose-ranging efficacy and safety phase, followed by a 40 week open label extension (OLE) phase (see FIG. 1).
The study consists of three phases and an optional OLE phase.
The PGIS is a 1-item measure that asks participants to provide a self-assessment of their overall CSU severity for the past week on a 4 point scale. Response choices are: “None”, “Mild”, “Moderate” and “Severe”. The PGIC is a 1-item measure that asks the participant to provide a self-assessment of overall change in their CSU since the participant started taking the study medication on a 7-point scale. The response options range from “Very Much Better” to “Very Much Worse.” Patients were to complete questionnaires for the 2 items during their site visit.

[2] = tested on: fetal development or male fertility; settings: preclinical; cited from earlier work

SMILES: CC(C)(C=C(C#N)C(=O)N1CCC[C@@H](n2nc(-c3ccc(Oc4ccccc4)cc3F)c3c(N)ncnc32)C1)N1CCN(C2COC2)CC1 [rilzabrutinib, (R)-2-[3-[4-amino-3-(2-fluoro-4-phenoxy-phenyl)pyrazolo[3,4-d]pyrimidin-1-yl]piperidine-1-carbonyl]-4-methyl-4-[4-(oxetan-3-yl)piperazin-1-yl]pent-2-enenitrile]
- PGIS Change from baseline Mean (SD) ([1]; Week 8, 400 mg BID): −1.00
- PGIS Change from baseline Median ([1]; Week 8, 400 mg BID): −1.00
- PGIS Median ([1]; Week 8, 400 mg BID): 1.00
- PGIS Percent change from baseline Mean (SD) ([1]; Week 8, 400 mg BID): −44.95%
- PGIS Percent change from baseline Median ([1]; Week 8, 400 mg BID): −50.00%
- PGIS category Mild, patients ([1]; Week 8, 400 mg BID): 13 (39.4)
- PGIS category Moderate, patients ([1]; Week 8, 400 mg BID): 7 (21.2)
- PGIS category None, patients ([1]; Week 8, 400 mg BID): 9 (27.3)
- PGIS category Severe, patients ([1]; Week 8, 400 mg BID): 4 (12.1)
- PGIS % Change difference for rilzabrutinib vs. placebo LS Mean (95% CI) ([1]; Week 8, 400 mg BID): −12.18 (−30.63, 6.27) %
- PGIS % Change from baseline LS Mean (SE) ([1]; Week 8, 400 mg BID): −46.44 (6.74) %
- PGIS Change difference for rilzabrutinib vs. placebo LS Mean (95% CI) ([1]; Week 8, 400 mg BID): −0.25 (−0.67, 0.16)
- PGIS Change from baseline Mean (SD) ([1]; Week 8, 400 mg QPM): 0.67
- PGIS Change from baseline Median ([1]; Week 8, 400 mg QPM): −1.00
- PGIS Median ([1]; Week 8, 400 mg QPM): 2.00
- PGIS Percent change from baseline Mean (SD) ([1]; Week 8, 400 mg QPM): −25.25%
- PGIS Percent change from baseline Median ([1]; Week 8, 400 mg QPM): −33.33%
- PGIS category Mild, patients ([1]; Week 8, 400 mg QPM): 10 (30.3)
- PGIS category Moderate, patients ([1]; Week 8, 400 mg QPM): 14 (42.4)
- PGIS category None, patients ([1]; Week 8, 400 mg QPM): 1 (3.0)
- PGIS category Severe, patients ([1]; Week 8, 400 mg QPM): 8 (24.2)
- PGIS % Change difference for rilzabrutinib vs. placebo LS Mean (95% CI) ([1]; Week 8, 400 mg QPM): 9.27 (−9.09, 27.62) %
- PGIS % Change from baseline LS Mean (SE) ([1]; Week 8, 400 mg QPM): −24.99 (6.69) %
- PGIS Change difference for rilzabrutinib vs. placebo LS Mean (95% CI) ([1]; Week 8, 400 mg QPM): 0.24 (−0.17, 0.65)
- PGIS Change from baseline LS Mean (SE) ([1]; Week 8, 400 mg QPM): −0.61 (0.15)
- PGIS Change from baseline Mean (SD) ([1]; Week 8, 400 mg TID): −1.13
- PGIS Change from baseline Median ([1]; Week 8, 400 mg TID): −1.00
- PGIS Median ([1]; Week 8, 400 mg TID): 1.00
- PGIS Percent change from baseline Mean (SD) ([1]; Week 8, 400 mg TID): 47.22%
- PGIS Percent change from baseline Median ([1]; Week 8, 400 mg TID): −50.00%
- PGIS category Mild, patients ([1]; Week 8, 400 mg TID): 12 (40.0)
- PGIS category Moderate, patients ([1]; Week 8, 400 mg TID): 8 (26.7)
- PGIS category None, patients ([1]; Week 8, 400 mg TID): 6 (20.0)
- PGIS category Severe, patients ([1]; Week 8, 400 mg TID): 4 (13.3)
- PGIS % Change difference for rilzabrutinib vs. placebo LS Mean (95% CI) ([1]; Week 8, 400 mg TID): −11.39 (−30.26, 7.48) %
- PGIS % Change from baseline LS Mean (SE) ([1]; Week 8, 400 mg TID): −45.65 (7.05) %
- PGIS Change difference for rilzabrutinib vs. placebo LS Mean (95% CI) ([1]; Week 8, 400 mg TID): −0.17 (−0.58, 0.25)
- PGIS Change from baseline LS Mean (SE) ([1]; Week 8, 400 mg TID): −1.02 (0.15)
- PGIS Change from baseline Mean (SD) ([1]; Week 12, 400 mg BID): −1.03
- PGIS Change from baseline Median ([1]; Week 12, 400 mg BID): −1.00
- PGIS Median ([1]; Week 12, 400 mg BID): 1.00
- PGIS Percent change from baseline Mean (SD) ([1]; Week 12, 400 mg BID): −43.55%
- PGIS Percent change from baseline Median ([1]; Week 12, 400 mg BID): −50.00%
- PGIS category Mild, patients ([1]; Week 12, 400 mg BID): 6 (19.4)
- PGIS category Moderate, patients ([1]; Week 12, 400 mg BID): 10 (32.3)
- PGIS category None, patients ([1]; Week 12, 400 mg BID): 12 (38.7)
- PGIS category Severe, patients ([1]; Week 12, 400 mg BID): 3 (9.7)
- PGIS % Change difference for rilzabrutinib vs. placebo LS Mean (95% CI) ([1]; Week 12, 400 mg BID): −13.46 (−33.69, 6.76) %
- PGIS % Change from baseline LS Mean (SE) ([1]; Week 12, 400 mg BID): −45.76 (7.46) %
- PGIS Change difference for rilzabrutinib vs. placebo LS Mean (95% CI) ([1]; Week 12, 400 mg BID): −0.34 (−0.77, 0.10)
- PGIS Change from baseline LS Mean (SE) ([1]; Week 12, 400 mg BID): −1.14 (0.16)
- PGIS Change from baseline Mean (SD) ([1]; Week 12, 400 mg QPM): −0.68
- PGIS Change from baseline Median ([1]; Week 12, 400 mg QPM): −1.00
- PGIS Median ([1]; Week 12, 400 mg QPM): 2.00
- PGIS Percent change from baseline Mean (SD) ([1]; Week 12, 400 mg QPM): −27.45%
- PGIS Percent change from baseline Median ([1]; Week 12, 400 mg QPM): −33.33%
- PGIS category Mild, patients ([1]; Week 12, 400 mg QPM): 10 (29.4)
- PGIS category Moderate, patients ([1]; Week 12, 400 mg QPM): 15 (44.1)
- PGIS category None, patients ([1]; Week 12, 400 mg QPM): 1 (2.9)
- PGIS category Severe, patients ([1]; Week 12, 400 mg QPM): 8 (23.5)
- PGIS % Change difference for rilzabrutinib vs. placebo LS Mean (95% CI) ([1]; Week 12, 400 mg QPM): 5.87 (−13.65, 25.38) %
- PGIS % Change from baseline LS Mean (SE) ([1]; Week 12, 400 mg QPM): −26.42 (7.16) %
- PGIS Change difference for rilzabrutinib vs. placebo LS Mean (95% CI) ([1]; Week 12, 400 mg QPM): 0.21 (−0.22, 0.63)
- PGIS Change from baseline LS Mean (SE) ([1]; Week 12, 400 mg QPM): −0.59 (0.15)
- PGIS Change from baseline Mean (SD) ([1]; Week 12, 400 mg TID): −1.17
- PGIS Change from baseline Median ([1]; Week 12, 400 mg TID): −1.00
- PGIS Median ([1]; Week 12, 400 mg TID): 1.00
- PGIS Percent change from baseline Mean (SD) ([1]; Week 12, 400 mg TID): −47.22%
- PGIS Percent change from baseline Median ([1]; Week 12, 400 mg TID): −50.00%
- PGIS category Mild, patients ([1]; Week 12, 400 mg TID): 13 (43.3)
- PGIS category Moderate, patients ([1]; Week 12, 400 mg TID): 8 (26.7)
- PGIS category None, patients ([1]; Week 12, 400 mg TID): 6 (20.0)
- PGIS category Severe, patients ([1]; Week 12, 400 mg TID): 3 (10.0)
- PGIS % Change difference for rilzabrutinib vs. placebo LS Mean (95% CI) ([1]; Week 12, 400 mg TID): −12.67 (−32.97, 7.63) %
- PGIS % Change from baseline LS Mean (SE) ([1]; Week 12, 400 mg TID): −44.96 (7.44) %
- PGIS Change difference for rilzabrutinib vs. placebo LS Mean (95% CI) ([1]; Week 12, 400 mg TID): −0.24 (−0.67, 0.19)
- PGIS Change from baseline LS Mean (SE) ([1]; Week 12, 400 mg TID): −1.04 (0.16)
- reproductive toxicity [2]: not expected to harm fetal development or male fertility

— patent US20260256792A1, “TREATMENT OF CHRONIC SPONTANEOUS URTICARIA BY ADMINISTERING (R)-2-[3-[4-AMINO-3-(2-FLUORO-4-PHENOXY-PHENYL)PYRAZOLO[3,4-D]PYRIMIDIN-1-YL]PIPERIDINE-1-CARBONYL]-4-METHYL-4-[4-(OXETAN-3-YL)PIPERAZIN-1-YL]PENT-2-ENENITRILE” (priority 2023, published 2026)
